According to paper PMC6145916, “Interaction of mitochondrial fission factor with dynamin related protein 1 governs physiological mitochondrial function in vivo” (Scientific Reports, 2018):
Where no end group is shown, it is not given here.

How the values were obtained:
[1] = system: MFF knockout MEFs; assay: Mitochondrial membrane potential (TMRM), MFF knockout MEFs; format: cell-based, mouse; settings: 20 µM P259 overnight, vs no peptide; 3 independent experiments, three technical replicates; ns p = 0.93
Procedure: Data are of 3 independent experiments with the whiskers calculated by the Turkey method. e. […]
determined by an unpaired, two -tailed t test). g. […]
control (no peptide treatment). Data are mean ± s.e. from 3 independent experiments. […]
and without phenol red. […] After incubation
HEPES, and without phenol red. […]
epifluorescence microscope with a 10X objective (Keyence). The Cy5 filter (Keyence) was used to autofocus on the mitochondria plane. […]
Mitochondrial membrane potential determination
After treatment, cells were washed with
Cells were incubated in a 37
°C incubator for 30 minutes. […]

[2] = system: wild-type mice; assay: Open-field activity chamber behavior; format: in vivo, mouse; settings: 3 mg/Kg/day
Text: (§1) (a) Quantification of mitochondrial Drp1 content relative to ALDH2 (a mitochondrial matrix enzyme) in the mitochondrial fraction isolated from total brain lysate of wild-type mice (Western blot shown in Fig. S3B) (n = 4 mice). (b) ATP content in brain tissue of wild-type mice (n = 4 mice, 2 replicates). (c) Representative transmission electron microscopy images of the striatum from wild-type mice. […] The first principal component represents 42% of the variation. (f) Local linear embedding dimensionality reduction and visualization of all behaviors collected weekly from TAT- (black) or P259- (purple) treated WT and TAT- (white) treated R6/2 mice over the course of 8 weeks. […] All behavior and survival tests were conducted by an experienced observer who was blinded to the treatment groups. Data are mean ± s.e.
Five-week old R6/2 HD mice and their wild-type littermates (a total of 60 mice) were implanted subcutaneously with a 28-d Alzet osmotic pump with either P259-TAT or TAT control peptide (15 mice per group) to be delivered continuously at a rate of 3 mg/Kg/day, as previously described. All mice were implanted twice for a total of an 8-week treatment. 20 of the WT mice were implanted 3 times for a total of a 12-week treatment at 3 mg/Kg/day. All the experiments were in accordance with protocols approved by the Institutional Animal Care and Use Committee of Stanford University and were performed based on the National Institutes of Health Guide for the Care and Use of Laboratory Animals. All methods were carried out in accordance with the relevant guidelines and regulations. […]
Survival and behavioral mice studies […]
All behavior and […]
survival tests were conducted by an experienced ob server who was blinded to the treatment groups.
Behavioral tests were administered weekly in an open-field activity arena (Med Associate s Inc, St.
Albans, VT. Model ENV-515) equipped with three planes of infrared detectors within a sound-proof chamber (Med Associates Inc., St. Albans, VT. MED-017-027), as described previously.12 Each mouse was placed in a corner of the chamber and was tracked for a period of 15 minutes.
The following activities were recorded: digging duration, grooming duration, climbing duration, rearing duration, seizure frequency, average velocity, active behaviors, total distance moved, jump counts/time, ambulatory counts/distance/time, latency towards center, stereotypic time/counts, resting time, vertical counts/time, and zone entries (center/periphery).
Dimensionality reduction of mouse behavior data
The collection of weekly behavior parameters for wild-type mice treated with P259 or the TAT control was assembled into a vector with a total of 180 behavior parameters per mouse. The top 20% of parameters contributing to treatment classification were filtered by using a combination of the ANOVA F- and the mutual information scores for each behavior. The filtered dataset was normalized and principal component analysis was performed using the Python scikit-learn package. An eigenvector was extracted to determine the contribution of each behavior to the first […]
treated wild-type mice and control-treated R6/2 mice during the eight-week treatment were assembled into a single vector for each mouse. The dataset was normalized and local linear embedding from the Python scikit-learn package was used to reduce the dimensionality of and visualize the behavior parameters.

[3] = system: HD R6/2 model mice; assay: Survival of R6/2 Huntington's mice; format: in vivo, mouse; settings: 3 mg/Kg/day, continuous subcutaneous osmotic pump, 8 weeks, vs TAT; 15 mice per group
Text: as §1
Five-week old R6/2 HD mice and their wild-type littermates (a total of 60 mice) were implanted subcutaneously with a 28-d Alzet osmotic pump with either P259-TAT or TAT control peptide (15 mice per group) to be delivered continuously at a rate of 3 mg/Kg/day, as previously described. All mice were implanted twice for a total of an 8-week treatment. 20 of the WT mice were implanted 3 times for a total of a 12-week treatment at 3 mg/Kg/day. […]
To quantify mitochondrial motility, the images at time 0 and 150 seconds w ere overlaid. […]

[4] = 8-week treatment, WT mice, n = 10 mice

YGRKKRRQRRRGSGIIQLPEIVVV-NH2 (C-terminus assumed) [P259]
effect on mitochondrial membrane potential, Mff knockout MEFs [1]: insensitive | active mouse behaviors [2, 4]: less active | jumping and climbing [2, 4]: jumped and climbed less frequently | total distance moved [2, 4]: travelled for a shorter distance | behavior profile, principal component analysis (top 20% of behaviors) ([2]; 12 weeks, WT mice, vs TAT): successfully separated the behavior profile of P259- and TAT control-treated mice | jump counts/time, periphery-to-center transition, movement counts, stereotypic time ([2]; WT mice, tested weekly, 12 weeks, vs TAT-treated mice): performed worse than TAT-treated mice | aggregate behavior score (local linear embedding) ([2]; weekly over 8 weeks, P259-treated WT vs TAT-treated WT and TAT-treated R6/2 mice): intermediate aggregate behavior score between WT- and R6/2 control-treated mice | survival of HD R6/2 mice [3]: further decline in survival
